# Laboratory results published in ChEMBL document CHEMBL5108066, “Structure-Guided Discovery of Potent Antifungals that Prevent Ras Signaling by Inhibiting Protein Farnesyltransferase” (J Med Chem, 2022).
# Active and inactive are the calls of the source. No cut-off for these calls is given here.
# Tests used:
# [1] = Inhibition of Cryptococcus neoformans farnesyltransferase assessed as inhibition of farnesylation of dansyl-GCVVM peptide using fluorescent peptide dansyl-GCVVM and 1uM farnesyl diphosphate as substrate by fluorescence assay
# Cryptococcus neoformans [2] = experiment: Antifungal activity against Cryptococcus neoformans H99 assessed as decrease in cell viability by measuring metabolic activity incubated for 72 hrs by alamar blue staining based broth dilution method; type: functional
# Cryptococcus neoformans [3] = experiment: Fungicidal activity against Cryptococcus neoformans H99 assessed as reduction in colonies incubated for 48 hrs by disk diffusion method; type: functional, organism-based
# Cryptococcus neoformans [4] = experiment: Inhibition of biofilm formation in Cryptococcus neoformans H99 incubated for 3 days by alamar blue staining based microtiter plate reader assay; type: functional; conditions: H99, 72 h, time 3 day
# [5] = tested on: Schizosaccharomyces pombe; experiment: Antifungal activity against Schizosaccharomyces pombe efflux-defective strain MJ-1682 assessed as inhibition of fungal growth by broth microdilution method; type: functional
# [6] = Cytotoxicity against mouse J774.A1 cells assessed as inhibition of cell viability measured at 24 hrs by AlamarBlue staining based cell viability assay; type: toxicity; conditions: read-out: MIC
# Cryptococcus neoformans [7] = experiment: Uncompetitive type inhibition of Cryptococcus neoformans farnesyltransferase assessed as inhibition constant using farnesyl diphosphate and fluorescent peptide dansyl-GCVVM as substrate by steady-state kinetic analysis
# [8] = Inhibition of rat farnesyltransferase assessed as inhibition of farnesylation of dansyl-GCVVM peptide using fluorescent peptide dansyl-GCVVM and 1uM farnesyl diphosphate as substrate by fluorescence assay
# Cryptococcus neoformans [9] = experiment: Uncompetitive type inhibition of Cryptococcus neoformans farnesyltransferase assessed as inhibition constant using FPP in presence of 10 mM phosphate and fluorescent peptide dansyl-GCVVM as substrate by steady-state kinetic analysis
Structure (SMILES),IC50 [1] [nM],MIC (Cryptococcus neoformans [2]) [µM],also measured
N#Cc1ccc(Cn2cncc2CN2CCN(c3cccc(OC(F)(F)F)c3)C(=O)C2)cc1,2700,50,–
N#Cc1ccc(Cn2cncc2CN2CCN(c3cccc(OC(F)(F)F)c3)C(=O)C2)cc1F,120,50,–
N#Cc1ccc(Cn2cncc2CN2CCN(c3cccc(OC(F)(F)F)c3)C(=O)C2)cc1Oc1ccccc1,2600,50,–
CCCC[C@H]1CN(c2cccc(OC(F)(F)F)c2)C(=O)CN1Cc1cncn1Cc1ccc(Br)cc1,190,3,Activity (Cryptococcus neoformans [3]): Active; MIC (Cryptococcus neoformans [4]): 12.5 µM; MIC [5]: 1.5 µM; MCC at 24 h [6]: 300 µM; K (Cryptococcus neoformans [7]): 750 nM; IC50 [8]: 2 nM; K (Cryptococcus neoformans [9]): 500 nM
CCCC[C@H]1CN(c2cccc(OC(F)(F)F)c2)C(=O)CN1Cc1cncn1Cc1ccc(Cl)cc1,260,6,–
CCCC[C@H]1CN(c2cccc(OC(F)(F)F)c2)C(=O)CN1Cc1cncn1Cc1ccc(C#N)c(F)c1,40,50,K (Cryptococcus neoformans [7]): 4.9 nM; K (Cryptococcus neoformans [9]): 4.2 nM
CCCC[C@H]1CN(c2cccc(OC(F)(F)F)c2)C(=O)CN1Cc1cncn1Cc1ccc(C(F)(F)F)cc1,280,6,–
CCCC[C@H]1CN(c2cccc(OC(F)(F)F)c2)C(=O)CN1Cc1cncn1Cc1ccc(F)c(C#N)c1,180,50,–
CCCC[C@H]1CN(c2ccccc2)C(=O)CN1Cc1cncn1Cc1ccc(Br)cc1,920,50,–
CCCC[C@H]1CN(c2cccc(C)c2C)C(=O)CN1Cc1cncn1Cc1ccc(C#N)cc1,2200,50,–
N#Cc1ccc(Cn2cncc2CN2CCN(c3cccc(Cl)c3)C(=O)C2)cc1 [L-778123 FREE BASE],–,100,IC50 [8]: 60 nM
CCCC[C@H]1CN(c2cccc(OC(F)(F)F)c2)C(=O)CN1Cc1cncn1Cc1ccc(Oc2ccccc2)c(C#N)c1,210,50,–
CCCC[C@H]1CN(c2cccc(OC(F)(F)F)c2)C(=O)CN1Cc1cncn1Cc1ccc(C#N)cc1,340,12,–
CCCC[C@H]1CN(c2cccc(Cl)c2)C(=O)CN1Cc1cncn1Cc1ccc(C#N)cc1,100,50,–
CCC[C@H]1CN(c2cccc(OC(F)(F)F)c2)C(=O)CN1Cc1cncn1Cc1ccc(Br)cc1,1100,6,–
CCCC[C@H]1CN(c2cccc(Cl)c2)C(=O)CN1Cc1cncn1Cc1ccc(Br)cc1,1100,12,–
CCCC[C@H]1CN(c2cccc(OC(F)(F)F)c2)C(=O)CN1Cc1cncn1Cc1ccc(C#N)c(Oc2ccccc2)c1,150,50,–
N#Cc1cc(Cn2cncc2CN2CCN(c3cccc(OC(F)(F)F)c3)C(=O)C2)ccc1F,550,50,–
CCCCC[C@H]1CN(c2cccc(OC(F)(F)F)c2)C(=O)CN1Cc1cncn1Cc1ccc(Br)cc1,160,3,–
CCCC[C@H]1CN(c2cccc(OC(F)(F)F)c2)C(=O)CN1Cc1cncn1Cc1ccccc1,1900,25,–
CCCC[C@H]1CN(c2cccc(OC(F)(F)F)c2)C(=O)CN1Cc1cncn1Cc1cccc(C#N)c1,740,50,–
CCCC[C@H]1CN(c2cccc(OC(F)(F)F)c2)C(=O)CN1Cc1cncn1Cc1ccc(F)cc1,710,12,–
N#Cc1cc(Cn2cncc2CN2CCN(c3cccc(OC(F)(F)F)c3)C(=O)C2)ccc1Oc1ccccc1,320,50,–
CCCC[C@H]1CN(c2cccc(Cl)c2)C(=O)CN1Cc1cncn1Cc1ccc(Cl)cc1,1600,25,–
